Assay results from patent publication US7141696B2, “Smooth muscle spasmolytic agents” (Bridge Pharma, Inc., priority 2003, dated 2006).

Key:
[1] = system: QTc interval; assay: Effects on the QT-interval of the ECG; set-up: species or system guinea pigs; settings: guinea pig, in vivo
Procedure: Anesthetized male guinea pigs (450–600 g) are used. The trachea is cannulated. Lead II electrocardiogram are recorded at 50 mm/sec. The is a 30 minute stabilization time after surgery, during which three baseline EKG recordings are made at 10-min intervals. Test article or vehicle are administered as an iv infusion over 30 min. ECG recordings are used to determine QT intervals and heart rates. To compensate for variations in heart rates, QTc intervals are calculated from QT- and RR-intervals as known to those skilled in the art. Prolongation of QTc is indicative of a prolonged action potential. Prolongation of QTc is a known cause of Torsades de Pointes ventricular fibrillation by drugs such as terodiline, terfenadine and astemizole (all of which have been withdrawn because of arrhythmogenic side effect).

[2] = system: muscarinic receptors; settings: from prior publications and patents; cited from earlier work
[3] = system: bladder hyperactivity; settings: cited from earlier work
[4] = system: smooth muscle; settings: from prior patents; cited from earlier work

In the case of `Cc1ccc(O)c([C@H](CCN(C(C)C)C(C)C)c2ccccc2)c1` [Tolterodine, R—N,N-diisopropyl-3-(2-hydroxy-5-methylphenyl)-3-phenylpropylamine], the “delay of cardiac repolarization (prolongation of the QTc interval of the ECG)” value [1] is listed as “potently prolongs the QTc interval”, the “anticholinergic activity / inhibition of muscarinic receptors” value (shortened to “anticholinergic activity / inhibition”) [2] is listed as “potent and non-selective inhibition of muscarinic receptors” and the “bladder hyperactivity in patients suffering from urinary incontinence” value [3] is listed as “reduce bladder hyperactivity”.

In the case of `Cc1ccc(O)c([C@@H](CCN(C(C)C)C(C)C)c2ccccc2)c1` [S-TOL], the “anticholinergic activity / inhibition” value [2] is listed as “little anticholinergic activity” and the non-cholinergic spasmolytic activities [4] is listed as “express non-cholinergic spasmolytic activities”.

In the case of `CC(C)N(CC[C@H](c1ccccc1)c1cc(CO)ccc1O)C(C)C` [Example 5HM], the “anticholinergic activity / inhibition” value [2] is listed as “potent and non-selective inhibition of muscarinic receptors”.

For `Cc1ccc(O)c(C(CCNC(C)C)c2ccccc2)c1` (centres unmarked) [DES-TOL], the “anticholinergic activity / inhibition” value [2] is given as “anticholinergic activity was further decreased” and the non-cholinergic spasmolytic activities [4] is given as “express non-cholinergic spasmolytic activities”.
